Results: patent publication US20260325473A1, “N-Beta-Hydroxybutyryl-Amino Acids and Related Compositions and Methods” (The Board of Trustees of the Leland Stanford Junior …, priority 2023, published 2026)
Blank lines part the entries; values can stand above or below the molecule they belong to.

What was measured:
CNDP2 [1] = molecular target: T1, CNDP2 (Mus musculus, UniProt Q9D1A2); assay: In vitro synthase (condensation) activity, lysates of CNDP2-transfected HEK293T cells; type: biochemical; parameters: expressed in transfected cells; host or cells: HEK293T (lysate); settings: role: substrate; for amino acid selectivity for the BHB-ylation reaction: amino acid 20 mM with BHB 20 mM
T1 sequence (Q9D1A2 1-475): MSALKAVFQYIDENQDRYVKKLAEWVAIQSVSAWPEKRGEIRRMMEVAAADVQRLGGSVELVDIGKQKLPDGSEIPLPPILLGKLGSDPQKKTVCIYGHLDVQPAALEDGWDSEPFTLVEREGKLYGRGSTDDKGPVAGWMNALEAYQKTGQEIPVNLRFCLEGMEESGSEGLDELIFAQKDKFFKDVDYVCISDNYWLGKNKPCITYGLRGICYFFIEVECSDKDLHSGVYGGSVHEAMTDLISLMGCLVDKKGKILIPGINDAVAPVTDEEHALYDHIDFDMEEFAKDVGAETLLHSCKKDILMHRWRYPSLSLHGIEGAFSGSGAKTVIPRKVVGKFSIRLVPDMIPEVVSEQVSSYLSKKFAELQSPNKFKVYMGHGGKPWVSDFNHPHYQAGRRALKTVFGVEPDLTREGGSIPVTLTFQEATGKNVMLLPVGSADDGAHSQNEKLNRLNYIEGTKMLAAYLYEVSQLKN
Description: In vitro enzyme activity assays. HEK293T cells were transfected with GFP, CNDP2 or CNDP2-E166A using PolyFect (Qiagen 301105) according to the manufacturer's instructions. The medium was changed one day post-transfection. After an additional 24 h, the cells were harvested in PBS, lysed by sonication and centrifuged (10 min at 15,000 rpm) to remove debris. Supernatant was collected and protein concentrations were adjusted. The in vitro reactions were conducted in Eppendorf tubes with 100 μL of 1 mg/mL protein and 20 mM substrates for keto amino acid synthase activity assays and. Reactions were incubated for 1 h at 37° C. and 20 μl of 1 M HCl were added to acidify the medium and to protonate keto amino acids. Reactions were vortexed and 400 μL of ethyl acetate were added to each reaction. Reactions were vortexed for 30 s to extract keto amino acids into the organic layer and centrifuged at 4° C. for 10 min at 15,000 r.p.m. A total of 300 μl from the top layer was transferred to a new Eppendorf tube and dried down under a stream of nitrogen. The residue was re-suspended in 150 μl of an 2:1:1 mixture of acetonitrile: methanol: water. The mixture was centrifuged at 4° C. for 10 min at 15,000 r.p.m. and the supernatant was transferred to a LC-MS vial.

DIO mice = assay: Chronic administration in DIO mice: body weight and food intake; type: in vivo, mouse; settings: for body weight, head-to-head keto amino acids: 5 days, vs vehicle
Description: General animal information. Animal experiments were performed according to procedure approved by the Stanford University Administrative Panel on Laboratory Animal Care (APLAC). Mice were maintained in 12-hr light-dark cycles at 22° C. and ~50% relative humidity and fed a standard irradiated rodent chow diet. Where indicated, high-fat diet (D12492, Research Diets 60% kcal from fat) and ketogenic diet (D06040601, Research Diets, 80% kcal fat/15% kcal protein/5% kcal carbohydrate) was used. Male C57BL/6J (stock no. 000664) and male C57BL/6J DIO mice (stock no. 380050) were purchased from Jackson Laboratory. Male C57BL/6NCrl (stock no. 027) mice were purchased from Charles River Laboratory. Whole body CNDP2-KO mice (catalog number, C57BL/6NCrl-Cndp2em1 (IMPC) Mbp/Mmucd, RRID: MMRRC_043492-UCD) were obtained from the Mutant Mouse Regional Resource Center, a NCRR-NIH funded strain repository. For in vivo injection of mice with metabolites, compounds were dissolved in 18:1:1 (by volume) of saline/Kolliphor EL (Sigma Aldrich)/DMSO. Compounds were administered to mice daily via intraperitoneal injections at 5 μl/g body weight at the indicated doses. For all injection experiments, mice were mock injected with the vehicle for 3-5 days until body weights have stabilized. Sample sizes were determined on the basis of previous experiments using similar methodologies. For metabolite administration experiments, mice were randomly assigned to treatment groups. Experimenters were not blinded to groups.

CNDP2 [2] = molecular target: T1, CNDP2; assay: Tissue enzyme activity, WT or CNDP2-KO mouse tissue lysates; type: biochemical; settings: role: product, BHB 20 mM + amino acid 20 mM; for synthesis activity in WT kidney and gut: 1 h, 37° C
Description: (§1) Tissue enzyme activity assays. Mouse tissues were mixed with cold PBS and homogenized using a Benchmark BeadBlaster Homogenizer at 4 °C. Protein concentrations were adjusted and the resulting crude was filtered through a 0.45-μm filter to remove insoluble materials. The in vitro reactions were conducted in Eppendorf tubes with 200 μg protein and incubation with the corresponding substrates at 37° C. for 1 hour. After that time, 10 μl of HCl and 400 μl of ethyl acetate were added in the BHB and lactate reactions and the samples were vortexed for 30 s. Reactions were centrifuged at 4° C. for 10 min at 15,000 r.p.m. and total of 300 μl from the top layer was transferred to a new Eppendorf tube and dried down under a stream of nitrogen. The residue was re-suspended in 100 μl of an 2:1:1 mixture of acetonitrile: methanol: water. The mixture was centrifuged at 4° C. for 10 min at 15,000 r.p.m. and the supernatant was transferred to a LC-MS vial. For carnosine reactions, the reactions were not acidified and were directly quenched with 300 μl of an 2:1:1 mixture of acetonitrile: methanol: water after the 1 h incubation and vortexed for 30 s. The mixture was centrifuged at 4° C. for 10 min at 15,000 r.p.m. and the supernatant was transferred to a LC-MS vial.

[3] = Human ketone ester supplementation study, plasma metabolites; type: in vivo; settings: ketone ester drink cohort
Description: (§2) Targeted metabolomics. Targeted measurements were performed using an Agilent 6470 triple quadrupole LC-MS instrument. MS analysis was performed using AJS in negative mode. The AJS source parameters were set as follows: the dry gas temperature was set at 250° C. with a gas flow of 12 l/min and the nebulizer pressure at 25 psi; the sheath gas temperature was set to 300° C. with the sheath gas flow set at 12 l/min; and the capillary voltage was set to 3,500 V. Separation of polar metabolites was performed as described above in the ‘Untargeted measurements of metabolites by LC-MS’ section. Multiple reaction monitoring was performed for the indicated metabolites with the listed dwell times, fragmentor voltage, collision energies, cell accelerator voltages and polarities. Quantification of the endogenous metabolite concentrations were performed by generating a standard curve with known concentrations of each metabolite. Metabolite standards were analyzed alongside the plasma samples using the same targeted triple quadrupole LC/MS method. A calibration standard curve generated from the metabolite standard concentrations and total peak areas were used to calculate the concentrations of each endogenous metabolite. The dilution of the plasma during the sample preparation was also taken into account for the quantification.
Human ketone ester supplementation study. Following screening, eligible subjects participated in a randomized, counter-balanced, double-blind, placebo-controlled crossover trial comparing BHB supplementation versus placebo, separated by a minimum of 2 days (ClinicalTrials.gov ID NCT04194450). Pre-menopausal women were tested in the follicular phase (days 3-9). Participants were asked to refrain from structured exercise and alcohol, limit physical activity, and follow a standardized diet (~50% carbohydrate, ~30% fat, ~20% protein) on the day before each trial. After refraining from medication use for 24 hours, participants reported to the Exercise, Metabolism and Inflammation Laboratory at the University of British Columbia-Okanagan in an overnight fasted state. Anthropometric measurements were obtained prior to insertion of an indwelling intravenous catheter into the antecubital vein for repeated blood sampling. Blood was collected into EDTA tubes (BD, 367863) and immediately centrifuged at 2000 rpm for 15 min and the top layer of plasma was aliquoted and frozen at −80 °C. After baseline (0) blood sample collection, the oral BHB supplement or placebo was consumed in liquid form (~30-65 mL). The BHB supplement (H.V.M.N®, USA) in the form of the ketone monoester (R)-3-hydroxybutyl (R)-3-hydroxybutyrate (AG®, TDeltaS, Oxford, UK) contained 0.4 g mL-1 BHB, natural flavoring, and <2% stevia leaf extract. The taste-matched placebo drink contained the same natural flavoring as the ketone supplement, stevia leaf extract, 5 mL of Bittrex stock (0.005 g of denatonium benzoate powder in 40 ml of water) and 1.5 mL of arrowroot stock (2 g of arrowroot powder in 50 ml of water) to match the bitter flavor and viscosity of the ketone monoester. Supplements were dispensed into opaque 80 ml bottles with volume calculated for 0.3 g BHB/kg body weight and labelled either A or B by a third-party researcher. Blinding was maintained until completion of data collection and analyses.

[4] = Keto-Med study, plasma metabolites; type: in vivo; settings: human; 4 weeks WFKD vs baseline
Description: as §2
Keto-Med study. Keto-Med was a single-site, randomized, crossover, interventional trial comparing 2 metabolically distinct diets (well-formulated ketogenic diet, WFKD; and Mediterranean-plus diet, Med-Plus) among individuals with prediabetes and T2DM. Forty participants aged ≥18 years with prediabetes or T2DM followed the WFKD and the Med-Plus for 12 weeks each, in random order. Participants were randomly assigned into 1 of 2 different diet sequences: WFKD for 12 weeks (phase 1) and then the Med-Plus for 12 weeks (phase 2), or the opposite order. Ad libitum intake was advised, and participants were guided to follow 2 sets of dietary guidelines that shared 3 important similarities (incorporating nonstarchy vegetables and avoiding added sugars and refined grains) and 3 important differences (incorporating compared with avoiding legumes, fruits, and whole, intact grains). During the WFKD phase, participants were counseled to sustain nutritional ketosis by limiting carbohydrates to 20-50 g/day and keeping proteins to ~1.5 g/kg ideal body weight/day, with the remaining kcals coming from fats. Participants were also instructed to consume >3 servings/day of nonstarchy vegetables and maintain adequate mineral and fluid intake for the ketogenic state (sodium, 3-5 g/day; potassium, 3-4 g/day). […]

CNDP2 [5] = molecular target: T1, CNDP2; assay: Carnosine hydrolysis (carnosinase activity) in WT or CNDP2-KO mouse tissue lysates; type: biochemical; settings: role: substrate, 10 mM carnosine
Description: as §1

Compound: CC(CO)C(=O)O (centres unmarked) [3-HIB, 3-hydroxisobutyric acid]
- CNDP2-dependent condensation activity with C4-hydroxycarboxylic acid isomers (CNDP2 [1]; with phenylalanine): not detected

Compound: CC(O)CC(=O)N[C@@H](Cc1c[nH]cn1)C(=O)O (some centres unmarked) [BHB-His]
- food intake and body weight, related metabolites and dipeptides (DIO mice; 50 mg/kg IP, 9 days): failed to reduce food intake or body weight

Compound: CC(C)C[C@H](NC(=O)CC(C)O)C(=O)O (some centres unmarked) [BHB-Leu, N-betahydroxybutyryl-leucine]
- body weight, head-to-head keto amino acids (DIO mice; 50 mg/kg/day IP): effective in suppressing body weight
- BHB-amino acid synthesis activity in CNDP2-KO kidney and gut (CNDP2 [2]): largely abolished
- synthesis activity in WT kidney and gut (CNDP2 [2]): highest BHB-amino acid synthesis activity

Compound: CSCC[C@H](NC(=O)CC(C)O)C(=O)O (some centres unmarked) [BHB-Met, N-betahydroxybutyryl-methionine]
- body weight, head-to-head keto amino acids (DIO mice; 50 mg/kg/day IP): effective in suppressing body weight
- BHB-amino acid synthesis activity in CNDP2-KO kidney and gut (CNDP2 [2]): largely abolished
- synthesis activity in WT kidney and gut (CNDP2 [2]): highest BHB-amino acid synthesis activity

Compound: C[C@@H](O)CC(=O)N[C@@H](CCC(N)=O)C(=O)O [Keto-Gln]
- induction by ketone ester drink [3]: had not been observed to be induced by ketone ester drink
- induction of plasma keto amino acids on WFKD [4]: Robust induction

Compound: C[C@@H](O)CC(=O)N[C@H](C(=O)O)[C@@H](C)O [Keto-Thr]
- induction by ketone ester drink [3]: had not been observed to be induced by ketone ester drink
- induction of plasma keto amino acids on WFKD [4]: Robust induction

Compound: NCCC(=O)N[C@@H](Cc1cnc[nH]1)C(=O)O [carnosine]
- carnosine hydrolysis across tissues (CNDP2 [5]): highest activity in liver and quadriceps and little activity in the kidney, gut, and brain
- carnosinase activity, effect of CNDP2 ablation (CNDP2 [5]; CNDP2-KO vs WT): not sensitive to genetic ablation of CNDP2

Compound: CC[C@H](C)[C@H](N)C(=O)O [isoleucine]
- amino acid selectivity for the BHB-ylation reaction (CNDP2 [1]): CNDP2 catalyzed BHB-ylation

Now from value to molecule, other results behind:

- product formed with lactate and phenylalanine as only substrates (CNDP2 [1]; lactate alone with 20 mM phenylalanine): exclusive production of Lac-Phe
Compound: C[C@H](O)C(=O)O [lactate]

- amino acid selectivity for the BHB-ylation reaction (CNDP2 [1]): CNDP2 catalyzed BHB-ylation
Compound: CC(C)C[C@H](N)C(=O)O [leucine]

- amino acid selectivity for the BHB-ylation reaction (CNDP2 [1]): CNDP2 catalyzed BHB-ylation
Compound: N[C@@H](Cc1ccccc1)C(=O)O [phenylalanine, reference compound]
- body weight and food intake, conjugate vs components (DIO mice; 50 mg/kg/day IP, BHB or phenylalanine at the same doses, 9 days): without effect

- amino acid selectivity for the BHB-ylation reaction (CNDP2 [1]): CNDP2 catalyzed BHB-ylation
Compound: CC(C)[C@H](N)C(=O)O [valine]
